From patent US20110015208A1, “PHARMACEUTICAL COMPOSITIONS CONTAINING DOPAMINE RECEPTOR LIGANDS AND METHODS OF TREATMENT USING DOPAMINE RECEPTOR LIGANDS” (priority 2007, published 2011)
Entries after “also recorded” stand apart in the source; their conditions may differ. Structures can show the parent of a compound that is named as a salt.

Key:
[1] = test system: chronic mild stress (CMS) model of depression; assay: Chronic mild stress (CMS) model of depression, sucrose consumption (Example 2); format: in vivo, rat
Excerpt: This study evaluated the antidepressant effect of cariprazine hydrochloride in the chronic mild stress (CMS) model of depression. A comparison to the efficacy of the tricyciclic antidepressant compound imipramine was also made.
Male Wistar rats were adapted to laboratory and housing conditions for 3 weeks, followed by adoption to consumption of 1% sucrose solution for an additional 5 weeks before being separated into control and to-be-stressed groups.
Chronic stress was applied to the allocated group for seven weeks. The following stressors were used: food and/or water deprivation, cage tilting (45 degrees backwards), intermittent illumination, paired housing, soiled cage (250 mL of tap water in sawdust bedding), stroboscopic illumination (150 flashed per minute), no stress. All stressors were 10-14 hours in duration and were applied individually and continuously, once or twice weekly, during the day and at night.
Consumption of sucrose solution was measured in 1-hour tests conducted on all animals (i.e., controls and stressed) once weekly throughout the entire experiment. The tests were preceded by 14 hours of food and water deprivation. On the basis of their sucrose intakes following the initial 2 weeks of stress, both stressed and control animals received once-daily chronic (5 weeks) IP injections of vehicle (1% methyl cellulose, 1 mL/kg), cariprazine hydrochloride (0.0625, 0.25 or 1.0 mg/kg), or imipramine (10 mg/kg) as reference treatment. […] These animals were considered weak responders/non-responders and were eliminated from the analysis.

[2] = test system: chronic mild stress (CMS) model of depression; assay: Chronic mild stress (CMS) model of depression, sucrose consumption (Example 3); format: in vivo, rat; settings: for sucrose consumption in stressed animals compared to vehicle: 5 weeks; for time until increase in sucrose intake reached statistical significance vs Week 0: stressed animals
Excerpt: Similar to the study described in Example 2, additional studies were undertaken to further evaluate the antidepressant effect of cariprazine hydrochloride, administered alone, or in combination with escitalopram oxalate, in a chronic mild stress model of depression
In the chronic mild stress (CMS) model, rats subjected to a variety of mild stressors for a prolonged period of time show a substantial decrease in their responsiveness to rewarding stimuli. This deficit is usually monitored by a decrease in the consumption of a 1% sucrose solution, but can also be seen in other tests, such as place preference conditioning or intracranial self-stimulation. The subsensitivity to reward appears to reflect anhedonia (inability to experience pleasure), which is a core symptom of major depressive disorders. Clinically approved antidepressants have shown activity in this animal model by reversing the effects of CMS on sucrose consumption. See, e.g., Sanchez C, Gruca P, Papp M, Behavioural Pharmacology 14, 465-470, 2003.
Male Wistar rats (Charles River, Germany) were brought into the laboratory two months before the start of the experiment. Except as described below, the animals were singly housed with food and water freely available, and were maintained on a 12-h light/dark and in a constant temperature (22±2° C.) and humidity (50±5%) conditions.
The animals were first trained to consume a 1% sucrose solution; training consisted of nine 1 h baseline tests in which sucrose was presented, in the home cage, following 14 h food and water deprivation. The sucrose intake was measured by weighing pre-weighed bottles containing the sucrose solution, at the end of the test. Subsequently, sucrose consumption was monitored, under similar conditions, at weekly intervals throughout the whole experiment.
On the basis of their sucrose intakes in the final baseline test, the animals were divided into two matched groups. One group of animals was subjected to the chronic mild stress procedure for a period of 7 consecutive weeks. Each week of stress regime consisted of: two periods of food or water deprivation, two periods of 45 degree cage tilt, two periods of intermittent illumination (lights on and off every 2 h), two periods of soiled cage (250 ml water in sawdust bedding), one period of paired housing, two periods of low intensity stroboscopic illumination (150 flashes/min), and three periods of no stress. All stressors were 10-14 h of duration and were applied individually and continuously, day and night. Control animals were housed in separate rooms and had no contact with the stressed animals. They were deprived of food and water for 14 h preceding each sucrose test, but otherwise food and water were freely available in the home cage.

[3] = test system: basal locomotor activity of mice; assay: Open field, basal locomotor activity of mice (Example 4A); format: in vivo, mouse; settings: for Total Distance Traveled [mean ± SEM]: test condition water, 60 min pretreatment
Procedure: (§1) Cariprazine hydrochloride and escitalopram oxalate were evaluated for anti-manic effects using the amphetamine/chlordiazepoxide (AMPH/CDP) hyperactivity test.
Male C57B1/6J mice from Jackson Laboratories (Bar Harbor, Me.) were used in this study. Mice were received at 6-weeks of age. Upon receipt, mice were assigned unique identification numbers (tail marked) and were group housed with 4 mice/cage. All animals remained housed in groups of four during the remainder of the study. All mice were acclimated to the colony room for at least two weeks prior to testing and were subsequently tested at an average age of 8 weeks of age. During the period of acclimation, mice were examined on a regular basis, handled, and weighed to assure adequate health and suitability. Mice were maintained on a 12/12 light/dark cycle. The room temperature was maintained between 20 and 23° C. with a relative humidity maintained between 30% and 70%. Chow and water were provided ad libitum for the duration of the study. In each test, animals were randomly assigned across treatment groups.
(§2) Distance traveled is measured by consecutive beam breaks.
(§3) Data was analyzed by analysis of variance (ANOVA) followed by Fisher PLSD post-hoc analysis when appropriate. An effect was considered significant if p<0.05. Outliers that fell above and below two standard deviations from the mean were removed from the final analysis.

[4] = test system: d-amphetamine/chlordiazepoxide mixture (AMPH/CDP)-induced hyperactivity in mice; assay: d-Amphetamine/chlordiazepoxide (AMPH/CDP) hyperactivity test (Example 4B); format: in vivo, mouse; settings: for Total Distance Traveled [mean ± SEM]: test condition AMPH/CDP
Procedure: as §1
Male C57B1/6J mice (8 weeks old) from Jackson Laboratories (Bar Harbor, Me.) were used in this study. Upon receipt, mice were assigned unique identification numbers (tail marked) and were group housed (4 mice/cage) in OPTI mouse ventilated cages. All animals remained housed in groups of four during the remainder of the study. During the period of acclimation, mice were examined on a regular basis, handled, and weighed to assure adequate health and suitability. Mice were maintained on a 12/12 light/dark cycle. The room temperature was maintained between 20 and 23° C. with a relative humidity maintained between 30% and 70%. Chow and water were provided ad libitum for the duration of the study. In each test, animals were randomly assigned across treatment groups.
d-Amphetamine sulfate (Sigma, 4.0 mg/kg) and chlordiazepoxide (CDP; Sigma, 2.5 mg/kg) were dissolved in sterile water and were administered intraperitoneally at a dose volume of 10 ml/kg.
as §2, §3

[5] = test system: basal locomotor activity of mice; assay: Open field, basal locomotor activity of mice (Example 4A); format: in vivo, mouse
[6] = cariprazine hydrochloride 1 mg/kg IP once daily
[7] = cariprazine hydrochloride 0.065 and 0.25 mg/kg IP once daily, 5 weeks
[8] = cariprazine hydrochloride 0.10 mg/kg oral
[9] = escitalopram oxalate 2 mg/kg IP once daily

CN(C)C(=O)N[C@H]1CC[C@H](CCN2CCN(c3cccc(Cl)c3Cl)CC2)CC1 [Cariprazine hydrochloride, trans-4-{2-[4-(2,3-dichlorophenyl)-piperazin-1-yl]-ethyl}-N,N-dimethylcarbamoyl-cyclohexylamine hydrochloride] was tested, and the “onset of action: increases in sucrose drinking evident at” value ([1]; cariprazine hydrochloride 0.065 mg/kg IP once daily, stressed animals) was 1 Week, the sedation ([1]; cariprazine hydrochloride 1 mg/kg IP) was “strongly sedative dose” and the “sucrose consumption in control animals” value [1, 6] was “significantly decreased”. The “sucrose intake in stressed animals” value [1, 6] was “did not change”, the “activity in the CMS model” value ([1]; cariprazine hydrochloride 1 mg/kg IP once daily (highest dose)) was “inactive” and the “sucrose drinking in controls (non-stressed)” value [1, 7] was “without any significant effect”. The “sucrose drinking in stressed animals” value [1, 7] was “dose-dependently increased sucrose drinking”, the “magnitude of effect on sucrose drinking relative to imipramine” value ([1]; most active dose 0.065 mg/kg IP vs imipramine 10 mg/kg IP) was “greater than that of imipramine” and the “sucrose consumption in stressed animals compared to vehicle” value (from here on “sucrose consumption … compared to vehicle”) ([2]; cariprazine hydrochloride 0.01 mg/kg alone, IP once daily) was “significantly decreased”. For the same compound, the “sucrose consumption … compared to vehicle” value ([2]; cariprazine hydrochloride 0.03 mg/kg alone, IP once daily) was “gradually increased”, the “time until increase in sucrose intake reached statistical significance vs Week 0” value ([2]; cariprazine hydrochloride 0.03 mg/kg alone, IP once daily, hydrochloride) was “after four weeks of treatment; also recorded: three weeks” and the “sucrose consumption … compared to vehicle” value ([2]; cariprazine hydrochloride 0.065 mg/kg IP once daily) was “gradually increased”. For the same compound, the “time until increase in sucrose intake reached statistical significance vs Week 0” value ([2]; cariprazine hydrochloride 0.065 mg/kg IP once daily, hydrochloride) was “after the first week of treatment; also recorded: following the first week of administration”, the “magnitude of action relative to escitalopram oxalate” value ([2]; cariprazine hydrochloride alone, full recovery at the end of treatment period) was “comparable to that of escitalopram oxalate” and the “effect on basal locomotor activity compared to water” value [3, 8] was “trend toward a significant decrease”. The “effect on basal activity compared to water” value ([3]; cariprazine hydrochloride 0.30 mg/kg oral) was “significantly decreased”, the “Total Distance Traveled [mean ± SEM]” value ([3]; 0.03 mg/kg oral) was 4056 ± 427 cm/60 min and the “Total Distance Traveled [mean ± SEM]” value ([3]; 0.10 mg/kg oral) was 1726 ± 112 cm/60 min. The “Total Distance Traveled [mean ± SEM]” value ([3]; 0.30 mg/kg oral) was 917 ± 73 cm/60 min, the “effect on enhanced locomotor activity produced by the CDP+amphetamine mixture” value [4, 8] was “significantly attenuated” and the “Total Distance Traveled [mean ± SEM]” value ([4]; cariprazine HCl 0.03 mg/kg oral) was 32628 ± 2510 cm/60 min. For the same compound, the “Total Distance Traveled [mean ± SEM]” value ([4]; cariprazine HCl 0.10 mg/kg oral) was 22594 ± 2838 cm/60 min.

For CN(C)CCC[C@@]1(c2ccc(F)cc2)OCc2cc(C#N)ccc21 [Escitalopram oxalate, 1-[3-(dimethyl-amino)propyl]-1-(p-fluorophenyl)-5-phthalancarbonitrile], the “sucrose consumption … compared to vehicle” value [2, 9] was “gradually increased; also recorded: fully reversed”, the “time until increase in sucrose intake reached statistical significance vs Week 0” value [2, 9] was “after three weeks of treatment” and the “Total Distance Traveled [mean ± SEM]” value ([3]; 0.50 mg/kg oral) was 4435 ± 389 cm/60 min. For the same compound, the “Total Distance Traveled [mean ± SEM]” value ([3]; 5.0 mg/kg oral) was 6499 ± 445 cm/60 min, the “effect on mixture-induced locomotor activity” value ([4]; escitalopram oxalate alone, either dose tested (0.10 and 0.50 mg/kg oral)) was “no significant effect” and the “Total Distance Traveled [mean ± SEM]” value ([4]; escitalopram oxalate 0.10 mg/kg oral) was 39700 ± 3477 cm/60 min. The “Total Distance Traveled [mean ± SEM]” value ([4]; escitalopram oxalate 0.50 mg/kg oral) was 40881 ± 3123 cm/60 min, the “effect on basal activity compared to water-treated mice” value ([5]; escitalopram oxalate 0.5, 2.0 and 5.0 mg/kg oral) was “Neither valproate nor escitalopram oxalate (0.5, 2.0, and 5.0 mg/kg) had a significant effect” and the “Total Distance Traveled [mean ± SEM]” value ([5]; test condition water, 2.0 mg/kg oral, 60 min pretreatment) was 5939 ± 369 cm/60 min.
